Measurements taken from PMC11652163, “Impact of fresh grape juice on the pharmacokinetics of omeprazole: results of a food–drug interaction study” (Frontiers in Pharmacology, 2024).
Read-outs that look alike come from different tables or passages of the source.

Tests used:
[1] = tested on: H+/K+ ATPase or proton pump in parietal cells; set-up: method as in Kromer et al., 1999; conditions: ref Kromer et al., 1999; cited from earlier work
[2] = Pharmacokinetics of oral omeprazole (40 mg) alone or with fresh grape juice in healthy male volunteers, plasma HPLC-UV, non-compartmental analysis; format: in vivo, human; conditions: regular intake of 250 mL grape juice for 1 week before omeprazole
[3] = previously reported range; cited from earlier work
[4] = Pharmacokinetics of oral omeprazole (40 mg) alone or with fresh grape juice in healthy male volunteers, plasma HPLC-UV, non-compartmental analysis; format: in vivo, human; conditions: for AUC / Tmax / Cmax: male, human, plasma; for AUC / Cmax: 40 mg
Method: The open-label and randomized study design was used to conduct the study in normal, healthy male volunteers. All volunteers were directed not to take any type of medication, including herbal medicines, for 2 weeks prior to clinical trials. Volunteers were divided into two groups. In treatment period-I, after overnight fasting, volunteers in group A received omeprazole (40 mg) alone, and volunteers in group B, […], were administered omeprazole (40 mg) along with grape juice (≈ 250 mL) on the fourth day. […] The volunteers in group B were given omeprazole (40 mg) alone. […] Blood samples (≈ 3 mL) were collected from each volunteer before the administration of the drug, as a blank, and following the administration of the drug at 0 […], and 24 h, in EDTA blood collection tubes. […] It was then centrifuged at 5,000 rpm for 5 min at -3°C. The supernatant was removed and evaporated in a nitrogen flux and then reconstituted in the mobile phase up to 0.5 mL and stored in a refrigerator. The samples were analyzed using a validated HPLC/UV-Vis chromatographic method developed for plasma sample analysis. The plasma samples were thawed on ice at room temperature and processed for analysis using the developed method. A calibration curve was plotted for varying concentrations of omeprazole, keeping the concentration of pantoprazole constant, and used as an internal standard. […] The concentration of pantoprazole was kept at 1 μg/ml as an internal standard. The concentration of omeprazole was 1 μg/mL, 1.5 μg/mL, and 2 μg/mL, and the concentration of internal standard was 1 μg/mL. The pharmacokinetic parameters of plasma omeprazole were calculated for each individual, using non-compartmental analysis of plasma concentration-time data with the help of PK-Summit® software. Cmax, the maximum plasma concentration, and tmax, the time to reach the maximum plasma concentration, were directly calculated from the analyzed data. The terminal half-life was calculated using the equation 0.693/kel, where kel represents the value of the elimination rate constant. The area under the plasma concentration-time curve was calculated according to the trapezoidal rule over the time interval 0 to the last measurable concentration (AUC0-t) and subsequent extrapolation to time infinity (AUC0-∞). The first moment of the plasma concentration vs. time curve (AUMC) is the plasma concentration multiplied by time vs. the time curve calculated by the same trapezoidal rule. The total body clearance (CL/F) was calculated as dose/AUC0-∞. The volume of distribution was calculated by multiplying total body clearance with the mean residence time (MRT). Statistical analysis was performed by paired t-test, and the pharmacokinetic parameters of omeprazole with water were compared with the parameters obtained from omeprazole administered with grape juice.

[5] = with repeated doses; cited from earlier work
[6] = set-up: method as in Dong et al., 1999; conditions: following administration of grape juice, healthy Chinese subjects; ref Dong et al., 1999; cited from earlier work

## COc1ccc2[nH]c([S+]([O-])Cc3ncc(C)c(OC)c3C)nc2c1 (centres unmarked) [Omeprazole]
[1]
  duration of inhibition of gastric acid secretion: up to 36 h
[2]
  effect of grape juice on half-life: not affected
[3]
  tmax, range already reported: 2 to 3 h
[4]; oral, omeprazole 40 mg with water, read-out: AUC0 ∞
  AUC: 6000 ± 1540 ng·h/mL
[4]; oral, omeprazole 40 mg co-administered with fresh grape juice, read-out: mean time to reach the maximum plasma concentration (converted)
  Tmax: 2.09 h
[4]; po, omeprazole 40 mg oral alone with water, mean
  Cmax: 1950 ng/mL
[4]; po, omeprazole 40 mg oral alone with water, mean, read-out: AUC0t
  AUC: 5840 ng·h/mL
[4]; po, omeprazole 40 mg oral alone with water, mean, read-out: AUC0∞
  AUC: 6000 ng·h/mL
[4]; po, omeprazole 40 mg oral alone with water, read-out: AUC0 t
  AUC: 5840 ng·h/mL
[4]; po, omeprazole 40 mg oral alone, Table 4, read-out: AUC0∞
  AUC: 6000 ng·h/mL
[4]; po, omeprazole 40 mg oral with 250 mL fresh grape juice after prior juice intake, mean
  Cmax: 1020 ng/mL
[4]; po, omeprazole 40 mg oral with fresh grape juice, mean, read-out: AUC0 t
  AUC: 2830 ng·h/mL
[4]; po, omeprazole 40 mg oral with fresh grape juice, mean, read-out: AUC0∞
  AUC: 2910 ng·h/mL
[4]; omeprazole 40 mg oral with fresh grape juice, mean, read-out: Tmax
  Tmax: 2.09 h
[4]; omeprazole 40 mg oral alone with water, mean
  AUMC0∞: 19.6 µg.hr*hr/mL
[4]; omeprazole 40 mg oral alone, Table 4
  AUMC0∞: 19.6 µg.hr*h/mL
[4]; omeprazole 40 mg oral with fresh grape juice, mean
  AUMC0∞: 10.36 µg.h*h/mL
[4]; omeprazole 40 mg oral with grape juice, Table 4
  AUMC0∞: 10.36 µg.hr*h/mL
[4]; omeprazole with grape juice versus alone
  effect of grape juice on mean value of clearance: increased
[4]; with grape juice versus alone
  Ratio (OMP + juice/OMP) of AUC0 t: 0.4846
  Ratio (OMP + juice/OMP) of AUC0∞: 0.485
  Ratio (OMP + juice/OMP) of AUMC0∞: 0.5286
  Ratio (OMP + juice/OMP) of Cmax: 0.5212
  Ratio (OMP + juice/OMP) of Tmax: 1.045
[5]
  increase of bioavailability: up to 60%

## CCOc1ccc(NC(C)=O)cc1 [phenacetin]
[6]
  change of AUC: reduced AUC
